The target of one series is Adenosine A3 (Homo sapiens, UniProt P0DMS8). As to the kind of experiment: LeadProfilingScreen radioligand binding.
A further series has as its target T1, hSLO1 (Homo sapiens, UniProt Q12791).
T1 construct: expressed in transfected cells; host or cells: HEK293
As to the kind of experiment: SLO1 inhibition in HEK cells. The class given is cell-based. On the procedure: HEK293 cells were transfected with the bicistronic vector pBUD-CE4.1 containing the genes of interest and a gene conferring antibiotic resistance. Cells were exposed to gradients of selection antibiotics, and optimal growth conditions for the stable lines were as follows: SLO3 and γ2 (SLO3-γ2) supplemented with 700 μg/mL Zeocin (Invitrogen); human SLO1 and β1 (SLO1-β1) with 1 mg/mL G418 (Sigma) and 3 μg/mL puromycin (Corning, Thermo Fisher); and human SLO1 and β4 (SLO1-β4) with 250 μg/mL Zeocin and 3 μg/mL puromycin. All cell lines were grown in Dulbecco’s Modified Eagle Medium (Gibco, Thermo Fisher) supplemented with 10% fetal bovine serum, 1% penicillin–streptomycin (Millipore Sigma), and selection antibiotics. To generate cells expressing SLO1 and γ2, stable SLO1-expressing HEK293 cells were transiently transfected with expression vectors for γ2 and green fluorescent protein (GFP) in the presence of lipofectamine (Invitrogen) for 5 h.
The cells were then washed and incubated in supplemented Dulbecco’s Modified Eagle Medium for 48 h before use. Patch-clamp electrophysiology was performed only on cells expressing GFP.
Currents in HEK293 cells were measured in the whole-cell patch-clamp configuration with an Axopatch 200B amplifier, digitized with a Digidata 1440A, and interfaced with Clampex 10.6.0.13 (Molecular Devices). […] An isolated cell was located on an Axiovert 200 microscope (Zeiss), and a gigaohm seal was formed with a borosilicate pipette with resistance between 3 and 6 MΩ and filled with internal solution (140 mM KMeSO3, 10 mM HEPES, 10 mM MES, 1 mM EGTA, pH 7). The seal was then broken by applying a negative pressure. Cells were kept at a holding potential of −60 mV for 50 ms, tested with a stepped voltage protocol from −80 to +150 mV in 10 mV increments for 100 ms, and then dropped to −40 mV for 50 ms with 2.5 s between sweeps. This protocol was used to record currents present with increasing concentration of our compound of interest or 3 μL/mL vehicle (DMSO) in the bath solution. Individual cells were tested with between 1 and 5 concentrations of the compound of interest or until the patch was lost. Currents were allowed to stabilize before the initial recording and after the perfusion solution was changed before recording.

A further series concerns the target Adrenergic α2A (Homo sapiens, UniProt P08913). The series can be described thus: LeadProfilingScreen radioligand binding.
The target of a further series is Tachykinin NK1 (Homo sapiens, UniProt P25103). As to the kind of experiment: LeadProfilingScreen radioligand binding.
Chain of Tachykinin NK1 (P25103 whole entry): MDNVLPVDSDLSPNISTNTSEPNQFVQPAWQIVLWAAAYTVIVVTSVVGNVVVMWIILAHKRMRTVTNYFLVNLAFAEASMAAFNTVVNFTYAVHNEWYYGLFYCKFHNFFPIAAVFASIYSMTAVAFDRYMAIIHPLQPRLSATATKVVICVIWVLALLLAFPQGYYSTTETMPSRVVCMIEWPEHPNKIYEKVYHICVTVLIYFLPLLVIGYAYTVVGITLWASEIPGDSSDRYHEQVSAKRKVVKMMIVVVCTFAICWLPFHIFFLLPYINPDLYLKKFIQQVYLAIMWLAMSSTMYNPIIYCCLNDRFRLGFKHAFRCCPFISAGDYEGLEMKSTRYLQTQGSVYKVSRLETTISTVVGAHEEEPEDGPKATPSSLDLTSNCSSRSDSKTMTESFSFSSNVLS
Series [1] is described as follows: Plasma protein binding, equilibrium dialysis. The class given is in vitro ADME. The method, then: Determination of compounds’ fraction unbound (f u ) in plasma from mouse, rat, and human was conducted in vitro via equilibrium dialysis using HTDialysis membrane plates. Dialysis membranes were hydrated as described by the manufacturer and inserted into the HTD plate, which was assembled and prepared for sample addition by the dispensing of blank buffer (Dulbecco’s Phosphate-Buffered Saline, 100 μL/well) into the trans chamber of each membrane-split well. Each compound was diluted into plasma from each species (5 μM final concentration), which was aliquoted in triplicate in the cis chamber of the prepared HTD plate wells. The HTD plate was sealed and incubated for 6 h at 37 °C. Following incubation, each well (both cis and trans chambers) was transferred (20 μL) to the corresponding wells of a 96-shallow-well (V-bottom) plate. The daughter plates were then matrix-matched (buffer-side wells received an equal volume of plasma, and plasma-side wells received an equal volume of buffer), and an extraction solution (120 μL; acetonitrile containing 50 nM carbamazepine as an internal standard (IS)) was added to all wells of both daughter plates to precipitate protein and extract the test article. The plates were then sealed and centrifuged (3500 rcf) for 10 min at ambient temperature. Supernatant (60 μL) from each well of the daughter plates was then transferred to the corresponding wells of new daughter plates (96-shallow-well, V-bottom) containing water (Milli-Q, 60 μL/well), and the plates were sealed in preparation for liquid chromatography–tandem mass spectrometry (LC-MS/MS) analysis (see below).

For a further series, the target named is T2, hERG (Homo sapiens, UniProt Q12809).
T2 construct: expressed in transfected cells
T2 sequence (Q12809 whole entry): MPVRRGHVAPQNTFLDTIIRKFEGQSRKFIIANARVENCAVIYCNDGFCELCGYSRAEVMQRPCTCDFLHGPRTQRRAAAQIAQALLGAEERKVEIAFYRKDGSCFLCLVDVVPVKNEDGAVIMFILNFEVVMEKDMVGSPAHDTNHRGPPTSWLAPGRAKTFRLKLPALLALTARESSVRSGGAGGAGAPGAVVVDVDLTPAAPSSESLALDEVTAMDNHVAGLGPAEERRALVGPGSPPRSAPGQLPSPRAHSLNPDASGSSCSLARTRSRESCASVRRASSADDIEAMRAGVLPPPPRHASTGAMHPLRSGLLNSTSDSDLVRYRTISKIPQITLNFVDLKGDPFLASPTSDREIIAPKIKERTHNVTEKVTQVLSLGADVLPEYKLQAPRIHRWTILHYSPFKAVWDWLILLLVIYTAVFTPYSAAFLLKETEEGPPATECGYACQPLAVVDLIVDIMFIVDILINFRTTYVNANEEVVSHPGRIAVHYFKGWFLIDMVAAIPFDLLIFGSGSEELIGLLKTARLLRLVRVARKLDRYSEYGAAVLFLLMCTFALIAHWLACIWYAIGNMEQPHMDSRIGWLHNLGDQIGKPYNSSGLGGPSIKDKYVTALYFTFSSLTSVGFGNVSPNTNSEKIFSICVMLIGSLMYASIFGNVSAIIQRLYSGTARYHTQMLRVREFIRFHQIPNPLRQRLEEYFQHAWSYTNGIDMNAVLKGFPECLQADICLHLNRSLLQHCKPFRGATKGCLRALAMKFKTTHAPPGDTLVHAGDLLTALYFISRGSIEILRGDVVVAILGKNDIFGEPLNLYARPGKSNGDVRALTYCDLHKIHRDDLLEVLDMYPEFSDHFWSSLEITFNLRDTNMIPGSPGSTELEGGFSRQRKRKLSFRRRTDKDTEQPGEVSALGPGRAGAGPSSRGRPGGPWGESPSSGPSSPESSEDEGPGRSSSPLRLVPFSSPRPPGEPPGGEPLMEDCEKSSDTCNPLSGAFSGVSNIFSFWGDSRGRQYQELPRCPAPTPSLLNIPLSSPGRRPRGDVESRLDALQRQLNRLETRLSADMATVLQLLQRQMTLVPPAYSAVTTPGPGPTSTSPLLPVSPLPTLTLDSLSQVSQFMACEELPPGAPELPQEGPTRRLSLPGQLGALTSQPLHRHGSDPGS
As to the kind of experiment: hERG patch clamp electrophysiology (HEK-293-hERG). The class given is cell-based. The note with it: for selectivity ratio: pH 7.35, hERG IC50 / hSLO3 IC50, read-out: hERG selectivity [fold] (SLO3 versus hERG); for IC50: whole-cell patch clamp, HEK-293-hERG. The method, then: Whole-cell patch-clamp electrophysiology was used to record hERG currents from a stably transfected monoclonal cell line expressing human hERG. The HEK-293-hERG cell line was generously provided by Dr. David Weaver (Vanderbilt University). Cells were cultured in a 5% CO2 incubator at 37 °C, dissociated with 0.25% Trypsin-EDTA, and seeded onto 12 mm circular coverslips (Electron Microscopy Sciences, PA, USA) for same-day whole-cell patch-clamp recordings. hERG currents were recorded at room temperature by using an AxoPatch 200B amplifier with Clampex 10.7 software (Molecular Devices, USA). The voltage-clamp protocol consisted of a 4-s step to +30 mV from a −80 mV holding potential, followed by a 4-s step to −40 mV, repeated every 10 s. Data were sampled at 5 kHz and filtered at 1 kHz. Patch pipettes, pulled from 1.5 mm OD thin-walled capillaries (Warner Instruments, MA, USA) using a Sutter P-1000 puller (Sutter Instrument, CA, USA), had resistances of 2–3 MΩ when filled with intracellular solution containing (mM): 135 KCl, 10 HEPES, 1 EGTA, 2 MgCl2, 2 Na2ATP (pH 7.35, adjusted with KOH). The extracellular solution contained (mM): 135 NaCl, 5 KCl, 2 CaCl2, 1 MgCl2, 5 Glucose, 10 HEPES, and 10 Sucrose (pH 7.35, adjusted with NaOH). After establishing stable baseline hERG currents, cells were perfused with compounds at concentrations of 0.03–30 μM until response saturation (typically 2–8 min). Recordings concluded with a 10 μM Quinidine solution to isolate Quinidine-sensitive currents, with compound responses expressed as fractions of this current. Peak “tail” current amplitudes at the beginning of −40 mV steps were analyzed using Clampfit 11.2 (Molecular Devices). IC50 values were calculated by fitting the Hill equation to concentration–response curves (CRCs) using the built-in Y = Bottom + (Top – Bottom)/(1 + (IC50/X)^HillSlope) model (nonlinear regression fit: [Inhibitor] vs response – Variable slope (four parameters)) in GraphPad Prism 10.4 (GraphPad Software).

[2] abbreviates: human, fraction unbound, equilibrium dialysis, 5 μM, read-out: Plasma Protein Binding (fu) Human.
[3] abbreviates: mouse, equilibrium dialysis, 5 μM, read-out: Plasma Protein Binding (fu) Mouse.
The mark [4] stands for this setting: rat, equilibrium dialysis, 5 μM, read-out: Plasma Protein Binding (fu) Rat.
[5] abbreviates: human, HEK-293 cells stably expressing hERG.

The text below walks through data of article PMC12441834, “Highly Potent and Subtype-Selective Sperm-Specific Potassium Channel SLO3 Inhibitors Display High Tissue Exposure in the Murine Female Reproductive Tract” (ACS Pharmacology & Translational Science, 2025).

Read-outs that look alike come from different tables or passages of the source.

T1 sequence (Q12791 whole entry): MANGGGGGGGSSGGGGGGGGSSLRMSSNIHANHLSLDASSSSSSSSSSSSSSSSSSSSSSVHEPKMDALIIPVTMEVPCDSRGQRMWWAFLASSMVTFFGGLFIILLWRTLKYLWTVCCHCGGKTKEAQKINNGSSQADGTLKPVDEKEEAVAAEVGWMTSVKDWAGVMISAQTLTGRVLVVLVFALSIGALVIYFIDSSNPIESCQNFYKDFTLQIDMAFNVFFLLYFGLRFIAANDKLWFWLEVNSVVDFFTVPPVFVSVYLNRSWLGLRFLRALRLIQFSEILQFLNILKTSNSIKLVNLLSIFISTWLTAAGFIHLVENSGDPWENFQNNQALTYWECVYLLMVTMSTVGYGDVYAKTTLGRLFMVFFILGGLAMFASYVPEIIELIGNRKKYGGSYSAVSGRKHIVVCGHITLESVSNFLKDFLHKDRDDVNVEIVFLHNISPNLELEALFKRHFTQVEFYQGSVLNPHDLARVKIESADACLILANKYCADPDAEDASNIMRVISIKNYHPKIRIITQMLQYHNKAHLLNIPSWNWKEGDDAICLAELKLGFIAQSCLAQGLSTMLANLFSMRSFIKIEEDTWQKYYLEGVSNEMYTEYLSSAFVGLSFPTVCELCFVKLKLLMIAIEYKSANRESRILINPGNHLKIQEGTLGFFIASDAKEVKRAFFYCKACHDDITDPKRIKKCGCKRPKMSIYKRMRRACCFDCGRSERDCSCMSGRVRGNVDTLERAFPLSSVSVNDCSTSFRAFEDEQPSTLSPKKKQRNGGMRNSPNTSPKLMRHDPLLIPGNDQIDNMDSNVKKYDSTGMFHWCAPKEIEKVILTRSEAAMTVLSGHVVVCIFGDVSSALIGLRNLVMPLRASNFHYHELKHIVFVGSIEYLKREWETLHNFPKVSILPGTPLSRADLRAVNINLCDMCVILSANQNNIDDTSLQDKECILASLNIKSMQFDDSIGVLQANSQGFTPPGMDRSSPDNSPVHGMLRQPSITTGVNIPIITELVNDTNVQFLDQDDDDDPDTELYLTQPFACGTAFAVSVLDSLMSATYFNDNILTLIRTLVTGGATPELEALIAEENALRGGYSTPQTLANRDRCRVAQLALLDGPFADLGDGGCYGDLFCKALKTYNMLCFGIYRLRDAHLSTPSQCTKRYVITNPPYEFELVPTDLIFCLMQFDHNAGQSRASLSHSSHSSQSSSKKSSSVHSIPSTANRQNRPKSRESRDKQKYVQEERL
Chain of Adenosine A3 (P0DMS8 whole entry): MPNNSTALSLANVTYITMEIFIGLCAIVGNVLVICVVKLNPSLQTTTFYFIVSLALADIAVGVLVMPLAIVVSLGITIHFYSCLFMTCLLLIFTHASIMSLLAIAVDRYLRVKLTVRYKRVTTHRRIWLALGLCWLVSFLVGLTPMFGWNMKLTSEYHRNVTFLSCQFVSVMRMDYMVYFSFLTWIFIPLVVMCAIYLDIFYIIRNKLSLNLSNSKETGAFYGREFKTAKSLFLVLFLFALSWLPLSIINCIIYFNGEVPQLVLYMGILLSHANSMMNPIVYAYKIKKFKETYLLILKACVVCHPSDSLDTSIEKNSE
Chain of Adrenergic α2A (P08913 whole entry): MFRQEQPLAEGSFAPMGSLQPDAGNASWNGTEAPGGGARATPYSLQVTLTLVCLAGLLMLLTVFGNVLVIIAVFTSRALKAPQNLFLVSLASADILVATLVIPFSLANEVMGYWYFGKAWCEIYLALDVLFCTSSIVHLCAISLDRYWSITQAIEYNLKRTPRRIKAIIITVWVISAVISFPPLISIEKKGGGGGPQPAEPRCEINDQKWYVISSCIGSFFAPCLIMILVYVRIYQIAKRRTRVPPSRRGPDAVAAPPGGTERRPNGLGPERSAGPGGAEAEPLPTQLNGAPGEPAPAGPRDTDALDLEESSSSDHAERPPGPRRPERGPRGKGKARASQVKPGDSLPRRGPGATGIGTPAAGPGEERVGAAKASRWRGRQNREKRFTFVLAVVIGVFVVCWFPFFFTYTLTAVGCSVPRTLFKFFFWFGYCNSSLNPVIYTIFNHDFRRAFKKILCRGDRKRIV

On to `O=C(c1ccc(OCc2ccc(OC(F)(F)F)cc2)cc1)N1CCN(c2ccc(C(F)(F)F)cn2)CC1` [VU6032735], for which the inhibition at 10 µM on Adenosine A3 was 9%; at Adrenergic α2A it was -3%; at Tachykinin NK1, 7%. Moreover, the “HEK hSLO1 % inhib. at 30 μM” value at hSLO1 (30 μM) was “No inhibition”. In addition, the fraction unbound at 6 h, 5 μM in series [1] (setting [2]) amounted to 0.0005; in series [1] (setting [3]) it was 0.012; in series [1] (setting [4]), 0.024. The selectivity ratio on hERG (setting [5]) is 172. Also, 28.3 µM corresponded to half-maximal inhibition on hERG (IC50).
As for `Cc1cc(Cl)cc2sc(OC3CCN(C(=O)CCCS(=O)(=O)c4cccc(Br)c4)CC3F)nc12` (stereo not drawn) [VU6045330], the IC50 is 109 µM against hSLO1 and 73.3 µM at hERG. Further, the “SLO1 selectivity (fold selective for SLO3)” value on hSLO1 (SLO1 IC50 / hSLO3 IC50) is given as 802 fold. Moreover, the selectivity ratio at hERG (setting [5]) turned out to be 555.
Regarding `Cc1cc(Cl)cc2sc(O[C@H]3CCN(C(=O)CCCS(=O)(=O)c4cccc(Br)c4)C[C@H]3F)nc12` [VU6047606], the inhibition at 10 µM was 43% on Adenosine A3, -4% on Adrenergic α2A and 8% on Tachykinin NK1. In addition, the inhibition at 30 µM at hSLO1 (HEK293, read-out: HEK hSLO1 % inhib. at 30 μM) was 10%. For the same compound, the fraction unbound at 6 h, 5 μM in series [1] (human, fraction unbound as percent, read-out: fu in human plasma) is < 0.01; in series [1] (setting [2]), 0.001; in series [1] (setting [3]) it was 0.0002; in series [1] (mouse, read-out: fu in mouse plasma), < 0.01; in series [1] (setting [4]), 0.001; in series [1] (rat, read-out: fu in rat plasma), < 0.01. Moreover, the IC50 turned out to be 12.7 µM against hERG (human, HEK-293 cells stably expressing hERG, pH 7.35) and 12 µM at hERG.
In the case of `Cc1cc(Cl)cc2sc(O[C@@H]3CCN(C(=O)CCCS(=O)(=O)c4cccc(Br)c4)C[C@H]3F)nc12` [VU6047607], the values for the fraction unbound at 6 h, 5 μM in series [1] (setting [2]), in series [1] (setting [3]) and in series [1] (setting [4]) were 0.002, 0.004 and 0.004, respectively. In addition, it took 17 µM to reach half-maximal inhibition against hERG (IC50).
In the case of `Cc1cc(Cl)cc2sc(O[C@@H]3CCN(C(=O)CCCS(=O)(=O)c4cccc(Br)c4)C[C@@H]3F)nc12` [VU6047608], the values for the fraction unbound at 6 h, 5 μM in series [1] (setting [2]), in series [1] (setting [3]) and in series [1] (setting [4]) were 0.001, 0.004 and 0.002, respectively.
Regarding `Cc1cc(Cl)cc2sc(O[C@H]3CCN(C(=O)CCCS(=O)(=O)c4cccc(Br)c4)C[C@@H]3F)nc12` [VU6047609], the values for the fraction unbound at 6 h, 5 μM in series [1] (setting [2]), in series [1] (setting [3]) and in series [1] (setting [4]) were 0.002, 0.008 and 0.004, respectively. In addition, at hERG, it took 56 µM to reach half-maximal inhibition (IC50).
